Results on six molecules are retold here after patent publication US10883143B2, “Compositions and methods for enhancing odorant receptor activity” (DUKE UNIVERSITY, priority 2009, dated 2021).

“Also recorded” adds a separate entry of the source.

For assay [1], the system named is olfactory sensory neurons (OSNs). Nature of the assay: Calcium imaging of acutely dissociated OSNs stimulated with a mix of 10 odorants. Type of assay: cell-based, mouse. As to conditions: paired T-test.
Assay [2] relates to OR-S6 coexpressed with M3. Nature of the assay: CRE-luciferase reporter assay of OR activation in HEK293T cells. The note with it: HEK293T coexpressing OR-S6, RTP1S and M3 vs. without M3. It counts as cell-based, mouse. Here is the method: (§1) Given that GPCRs that form heteromeric interactions often show functional co-modulation, experiments were conducted to determine if altering M3 activity directly affects the odor-mediated activation of ORs. […] HEK293T cells Hana3A cells were maintained in minimal essential medium (MEM) containing 10% fetal bovine serum (M10) and penicillin-streptomycin and amphotericin solution. Lipofectamine 2000 (Invitrogen) was used for transfection following manufacturer's protocols. […] Briefly, cAMP response element (CRE)-luciferase (Stratagene) was used to measure OR activation. […] Cells were plated on poly-D-lysine-coated 96-well plates (NUNC) 2 days prior to assay. Cells were transfected with ORs in either Hana3A or HEK293T cell lines along with various combinations of RTP1S, Ric-8b, M3, CRE-luciferase, and pRL-SV40. 18-24 hours after transfection, cells were rinsed with 50 μl of CD293 (Invitrogen) and stimulated with 25 μl of odorant solution dissolved in CD293. Cells were incubated for 4 hours at 37° C. and 5% CO2 before luciferase assays. Protocols for measuring luciferase and Renilla luciferase activities were as described by the manufacturer (Promega). Normalized luciferase activity was calculated with the formula (LN−Lmin)/(Lmax−Lmin), where LN is the luminescence of firefly luciferase in response to the odorant, Lmin is the minimum luciferase value on a plate or set of plates, and Lmax is the maximum luciferase value on a plate or set of plates. The data was analyzed with Microsoft Excel and GraphPad Prism 5. Odorants and muscarinic agonists and antagonists were from Sigma except for darifenacin, which was purchased from Santa Cruz.
On the technique in general: A reporter such as luciferase makes a cellular process visible.

Assay [3] deals with OR-S6, RTP1S and M3 coexpressed. Nature of the assay: Alphascreen cAMP assay in HEK293T cells. Type of assay: cell-based, mouse. As to the method:
When OR, RTP1S, and M3 were coexpressed, the background level was slightly higher than other conditions.
Alphascreen cAMP assay (Perkin Elmer) was used to measure changes of cAMP. Cells were plated on 96-cell plate (poly D lysine coated, NUNC). 24 hours after transfection, cells were washed in Hanks containing 5 mM HEPES, 0.1% BSA and 500 uM IBMX for 30 minutes. The cells were then stimulated with Hanks containing 5 mM HEPES, 0.1% BSA and 500 uM IBMX and corresponding chemicals. The stimulated cells were incubated for 10 min at room temperature before lysis. The manufacture's protocol was used to measure cAMP.
In general terms: Alpha assays give light when donor and acceptor beads are brought close together.

Assay [4] concerns the target T1, M3 (Mus musculus, UniProt Q9ERZ3).
T1 construct: The open reading frames were amplified using Phusion polymerase; expressed in transfected cells; host or cells: HEK293T
Nature of the assay: Calcium imaging with HEK293T cells expressing M3. It counts as cell-based. The note with it: carbachol 10^−7M. The source says:
(§2) Since M3 potentiates OR signaling, the possibility that OR activation may also enhance M3 signaling was considered.

In assay [5] the test system is OR-S6 coexpressed with M3. Nature of the assay: Calcium imaging with HEK293T cells coexpressing OR-S6 and M3. It counts as cell-based, mouse. As to conditions: for calcium response to odor alone: OR-S6 and its cofactors (mRTP) coexpressed with M3, 10^−4M nonanedioic acid.
Excerpt: as §2

Assay [6] concerns OR-S6. Nature of the assay: Calcium imaging with HEK293T cells expressing OR-S6 without M3. It counts as cell-based, mouse. As to the method: as §2
Calcium imaging with HEK293T cells was performed as described (see, e.g., Y. Ishimaru et al., Proc Natl Acad Sci USA 103, 12569 (Aug. 15, 2006); herein incorporated by reference in its entirety).

Assay [7] deals with T2, OR-S6 coexpressed with M3 (Mus musculus, UniProt Q9ERZ3).
T2 construct: The open reading frames were amplified using Phusion polymerase; expressed in transfected cells; host or cells: HEK293T
Nature of the assay: CRE-luciferase reporter assay of OR activation in HEK293T cells. Type of assay: cell-based. Here is the method:
as §1

T2 sequence (Q9ERZ3 whole entry): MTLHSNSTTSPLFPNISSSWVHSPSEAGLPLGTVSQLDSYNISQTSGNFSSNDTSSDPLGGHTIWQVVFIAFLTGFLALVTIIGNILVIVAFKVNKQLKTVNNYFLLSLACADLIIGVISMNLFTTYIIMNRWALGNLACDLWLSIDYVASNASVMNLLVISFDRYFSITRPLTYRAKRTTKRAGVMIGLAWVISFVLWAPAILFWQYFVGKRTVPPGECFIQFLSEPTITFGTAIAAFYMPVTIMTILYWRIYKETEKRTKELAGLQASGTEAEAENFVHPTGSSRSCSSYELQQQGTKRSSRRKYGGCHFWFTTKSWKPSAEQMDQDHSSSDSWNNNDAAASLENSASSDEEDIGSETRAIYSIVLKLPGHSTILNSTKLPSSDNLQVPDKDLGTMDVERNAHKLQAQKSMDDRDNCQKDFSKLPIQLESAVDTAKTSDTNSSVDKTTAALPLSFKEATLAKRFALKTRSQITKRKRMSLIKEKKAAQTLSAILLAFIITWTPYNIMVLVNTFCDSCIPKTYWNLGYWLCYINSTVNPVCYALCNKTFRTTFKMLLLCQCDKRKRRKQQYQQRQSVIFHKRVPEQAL
T1 sequence (Q9ERZ3 whole entry): as above

In the case of `O[Si](CCCN1CCCCC1)(c1ccc(F)cc1)C1CCCCC1` (stereo not drawn) [pfHHSiD], the “odor-mediated calcium responses of OSNs (Fluo-4/Fura-red ratio, Anet)” value in assay [1] (10^−6M antagonist with mix of 10 odorants each at 10^−5M) is “Equivalent results; also recorded: attenuated odor-mediated responses of OSNs”.
With `C[C@H](CCC(=O)O)C[C@H](C)C[C@H](C)C(=O)/C=C(\O)[C@H](C)C[C@H](C)C/C=C/[C@@H](C)[C@@H](O)[C@@H](C)[C@@H](O)C[C@@H]1CC[C@@](C)([C@H]2CC[C@@](C)([C@@H](C)O)O2)O1` [ionomycin], the entries for the “CRE-luciferase reporter response without OR ligands” value in assay [2] and in assay [2] (listed as Ionomycin) were “reporter gene responses were not seen” and “had no effect on OR activation”, respectively.
Turning to `C[N+](C)(C)CCOC(N)=O` [carbachol], the “rise in cAMP following OR stimulation, costimulation with carbachol” value in assay [3] (carbachol 10^−7M, HEK293T transfected with OR-S6, RTP1S and M3) is “even more dramatic; also recorded: further stimulates production of cAMP”.
As to `O=C(O)CCCCCCCC(=O)O` [nonanedioic acid], the calcium response entry in assay [4] is “No response was observed”; in assay [5] (cells expressing both S6 and M3 in the absence of RTP), “does not elicit a calcium response”; in assay [6] (HEK293T cells expressing OR-S6 alone), “No calcium response was observed”; in assay [6] (cells coexpressing OR and Gα15olf (positive control)), “generate a calcium response”; in assay [6] (cells coexpressing OR and Gα15olf (positive control), listed as nonandioic acid) it was “increase cellular calcium”. For the same molecule, the “calcium response to odor alone” value in assay [5] was “strong calcium response”; in assay [5] (listed as nonandioic acid), “calcium level increases”. Further, the “cellular cAMP levels following stimulation with OR-S6 ligand” value in assay [3] (cells coexpressing OR-S6, RTP1S and M3 vs. without M3) is listed as “dramatic increase in cellular cAMP levels”.
As to `NC(=O)C(c1ccccc1)(c1ccccc1)[C@@H]1CCN(CCc2ccc3c(c2)CCO3)C1` [darifenacin], the “odor-mediated calcium responses of OSNs (Fluo-4/Fura-red ratio, Anet)” value in assay [1] (10^−7M antagonist with mix of 10 odorants each at 10^−5M) is listed as “significantly attenuated”; in assay [1] (10^−7M antagonist with mix of 10 odorants each at 10^−5M, listed as darifenecin), “attenuated odor-mediated responses of OSNs”.
On to `CN1[C@@H]2CC[C@H]1C[C@@H](OC(=O)C(CO)c1ccccc1)C2` (stereo partly drawn) [atropine], for which the “OR-S6 activation by nonanedioic acid on co-stimulation with muscarinic ligand” value in assay [7] is “hindered the potentiation effect of M3”.
